Here are results for 18 molecules from the supplement of paper PMC8967900.

SMILES strings stand for the structures.
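Note: ALL cell lines in 384-well plates, five doses spanning 10,000-fold, each plate scaled between vehicle and 100 µmol/L benzalkonium chloride controls, sDSS an adapted area-under-curve metric.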

One test relates to PF-382. Kind of test: selective drug sensitivity score (sDSS, relative to normal bone marrow) (sDSS (score)); higher = more potent and effective on the cell line relative to normal bone marrow cells. The settings on record: 72 h.
As for `CN(C)Cc1ccc(S(=O)(=O)n2ccc(/C=C/C(=O)NO)c2)cc1` [Resminostat] (top concentration 10000 nM), the “selective drug sensitivity score” value came to 2.64.
As to `COc1cc(OC)c(/C=C/S(=O)(=O)Cc2ccc(OC)c(NCC(=O)O)c2)c(OC)c1` [Rigosertib] (top concentration 10000 nM), the “selective drug sensitivity score” value came to 10.9.
For `COc1ccc(CCc2nc3cc(-c4c(C)noc4C)ccc3n2C[C@H](C)N2CCOCC2)cc1Cl` [SGC-CBP30] (top concentration 25000 nM), the “selective drug sensitivity score” value is 3.08.
Consider `CCS(=O)(=O)c1cccc(-c2cc(C(=O)NC3CCN(C)CC3)c(C)c3[nH]c4ncc(C)cc4c23)c1` [TAK-901] (top concentration 1000 nM), for which the “selective drug sensitivity score” value is 7.16.
Take `Nc1nc(NC2CC2)cc(-c2cccc(Cl)c2Cl)n1` [TH588] (top concentration 25000 nM): the “selective drug sensitivity score” value was found to be 6.72.
Consider `CC(=O)Nc1ccc(C(=O)Nc2ccccc2N)cc1` [Tacedinaline] (top concentration 1000 nM), for which the “selective drug sensitivity score” value was -0.02.
Same read-out and setting: as for `Cn1ncnc1[C@H]1c2n[nH]c(=O)c3cc(F)cc(c23)N[C@@H]1c1ccc(F)cc1` [Talazoparib] (top concentration 1000 nM), the figure is -3.62; as for `COc1cccc2c1c(O)c(C(=O)N(C)c1ccc(C(F)(F)F)cc1)c(=O)n2C` [Tasquinimod] (top concentration 10000 nM), -0.32.
With `Nc1nc2[nH]cnc2c(=S)[nH]1` [Thioguanine] (top concentration 10000 nM), the “selective drug sensitivity score” value was determined as 12.

Another test concerns HAL-01. The test is described as above. The settings on record: 72 h.
Turning to `C1=N/C2=N/c3ccc(OCCN4CCCC4)c(c3)COC/C=C/COCc3cccc(c3)C(=C1)N2` [Pacritinib] (top concentration 10000 nM), the “selective drug sensitivity score” value is -0.6.
On the same count and under the same terms, the same measure for `Cc1[nH]c2ccccc2c1CCNCc1ccc(/C=C/C(=O)NO)cc1` [Panobinostat] (top concentration 1000 nM): -3.26; for `Cc1ccc(Nc2nccc(N(C)c3ccc4c(C)n(C)nc4c3)n2)cc1S(N)(=O)=O` [Pazopanib] (top concentration 10000 nM): -0.16; for `Nc1nc2[nH]cc(CCc3ccc(C(=O)N[C@@H](CCC(=O)O)C(=O)O)cc3)c2c(=O)[nH]1` [Pemetrexed] (top concentration 10000 nM): 20.8.
On the same count and under the same terms, as for `Cc1ccc(C(=O)Nc2ccc(CN3CCN(C)CC3)c(C(F)(F)F)c2)cc1C#Cc1cnc2cccnn12` [Ponatinib] (top concentration 1000 nM), the figure is 8.42.
Take `C[C@]12C=CC(=O)C=C1CC[C@@H]1[C@@H]2[C@@H](O)C[C@@]2(C)[C@H]1CC[C@]2(O)C(=O)CO` [Prednisolone] (top concentration 10000 nM): the “selective drug sensitivity score” value was -2.6.
Regarding `CC(C)(C)c1cc(NC(=O)Nc2ccc(-c3cn4c(n3)sc3cc(OCCN5CCOCC5)ccc34)cc2)no1` [Quizartinib] (top concentration 1000 nM), the “selective drug sensitivity score” value was 3.18.
With `Nc1cc(F)ccc1NC(=O)/C=C/c1cnn(C/C=C/c2ccccc2)c1` [RGFP966] (top concentration 10000 nM), the “selective drug sensitivity score” value stood at 12.7.
With `CNC(=O)c1cc(Oc2ccc(NC(=O)Nc3ccc(Cl)c(C(F)(F)F)c3)c(F)c2)ccn1` [Regorafenib] (top concentration 10000 nM), the “selective drug sensitivity score” value was found to be 2.04.
`CN(C)Cc1ccc(S(=O)(=O)n2ccc(/C=C/C(=O)NO)c2)cc1` [Resminostat] (top concentration 10000 nM): the “selective drug sensitivity score” value came to 1.84.
With `COc1cc(OC)c(/C=C/S(=O)(=O)Cc2ccc(OC)c(NCC(=O)O)c2)c(OC)c1` [Rigosertib] (top concentration 10000 nM), the “selective drug sensitivity score” value worked out at 14.5.
Same read-out and setting: the same measure for `COc1ccc(CCc2nc3cc(-c4c(C)noc4C)ccc3n2C[C@H](C)N2CCOCC2)cc1Cl` [SGC-CBP30] (top concentration 25000 nM): 3.98; for `CCS(=O)(=O)c1cccc(-c2cc(C(=O)NC3CCN(C)CC3)c(C)c3[nH]c4ncc(C)cc4c23)c1` [TAK-901] (top concentration 1000 nM): -2.74; for `Nc1nc(NC2CC2)cc(-c2cccc(Cl)c2Cl)n1` [TH588] (top concentration 25000 nM): -0.58.
On the same count and under the same terms, as for `CC(=O)Nc1ccc(C(=O)Nc2ccccc2N)cc1` [Tacedinaline] (top concentration 1000 nM), the figure is 9.18; as for `Cn1ncnc1[C@H]1c2n[nH]c(=O)c3cc(F)cc(c23)N[C@@H]1c1ccc(F)cc1` [Talazoparib] (top concentration 1000 nM), 6.58.
`COc1cccc2c1c(O)c(C(=O)N(C)c1ccc(C(F)(F)F)cc1)c(=O)n2C` [Tasquinimod] (top concentration 10000 nM): the “selective drug sensitivity score” value is -0.42.
On the same count and under the same terms, the same measure for `Nc1nc2[nH]cnc2c(=S)[nH]1` [Thioguanine] (top concentration 10000 nM): 9.44.

The next test concerns 380. The description is as above. The settings on record: 72 h.
For `C1=N/C2=N/c3ccc(OCCN4CCCC4)c(c3)COC/C=C/COCc3cccc(c3)C(=C1)N2` [Pacritinib] (top concentration 10000 nM), the “selective drug sensitivity score” value is -8.7.
In the case of `Cc1[nH]c2ccccc2c1CCNCc1ccc(/C=C/C(=O)NO)cc1` [Panobinostat] (top concentration 1000 nM), the “selective drug sensitivity score” value is 12.1.
On to `Cc1ccc(Nc2nccc(N(C)c3ccc4c(C)n(C)nc4c3)n2)cc1S(N)(=O)=O` [Pazopanib] (top concentration 10000 nM), for which the “selective drug sensitivity score” value was -0.86.
Turning to `Nc1nc2[nH]cc(CCc3ccc(C(=O)N[C@@H](CCC(=O)O)C(=O)O)cc3)c2c(=O)[nH]1` [Pemetrexed] (top concentration 10000 nM), the “selective drug sensitivity score” value worked out at 22.6.
As to `Cc1ccc(C(=O)Nc2ccc(CN3CCN(C)CC3)c(C(F)(F)F)c2)cc1C#Cc1cnc2cccnn12` [Ponatinib] (top concentration 1000 nM), the “selective drug sensitivity score” value worked out at 9.52.
Regarding `C[C@]12C=CC(=O)C=C1CC[C@@H]1[C@@H]2[C@@H](O)C[C@@]2(C)[C@H]1CC[C@]2(O)C(=O)CO` [Prednisolone] (top concentration 10000 nM), the “selective drug sensitivity score” value amounted to 23.8.
In the case of `CC(C)(C)c1cc(NC(=O)Nc2ccc(-c3cn4c(n3)sc3cc(OCCN5CCOCC5)ccc34)cc2)no1` [Quizartinib] (top concentration 1000 nM), the “selective drug sensitivity score” value was -1.52.
With `Nc1cc(F)ccc1NC(=O)/C=C/c1cnn(C/C=C/c2ccccc2)c1` [RGFP966] (top concentration 10000 nM), the “selective drug sensitivity score” value was found to be 12.9.
Take `CNC(=O)c1cc(Oc2ccc(NC(=O)Nc3ccc(Cl)c(C(F)(F)F)c3)c(F)c2)ccn1` [Regorafenib] (top concentration 10000 nM): the “selective drug sensitivity score” value is 8.54.
Same read-out and setting: the same measure for `CN(C)Cc1ccc(S(=O)(=O)n2ccc(/C=C/C(=O)NO)c2)cc1` [Resminostat] (top concentration 10000 nM): 7.44; for `COc1cc(OC)c(/C=C/S(=O)(=O)Cc2ccc(OC)c(NCC(=O)O)c2)c(OC)c1` [Rigosertib] (top concentration 10000 nM): 14.3.
`COc1ccc(CCc2nc3cc(-c4c(C)noc4C)ccc3n2C[C@H](C)N2CCOCC2)cc1Cl` [SGC-CBP30] (top concentration 25000 nM): the “selective drug sensitivity score” value stood at 0.38.
On to `CCS(=O)(=O)c1cccc(-c2cc(C(=O)NC3CCN(C)CC3)c(C)c3[nH]c4ncc(C)cc4c23)c1` [TAK-901] (top concentration 1000 nM), for which the “selective drug sensitivity score” value worked out at 10.4.
Take `Nc1nc(NC2CC2)cc(-c2cccc(Cl)c2Cl)n1` [TH588] (top concentration 25000 nM): the “selective drug sensitivity score” value was -0.58.
`CC(=O)Nc1ccc(C(=O)Nc2ccccc2N)cc1` [Tacedinaline] (top concentration 1000 nM): the “selective drug sensitivity score” value worked out at 12.2.
In the case of `Cn1ncnc1[C@H]1c2n[nH]c(=O)c3cc(F)cc(c23)N[C@@H]1c1ccc(F)cc1` [Talazoparib] (top concentration 1000 nM), the “selective drug sensitivity score” value was determined as 21.4.
Still for that read-out and setting: the same measure for `COc1cccc2c1c(O)c(C(=O)N(C)c1ccc(C(F)(F)F)cc1)c(=O)n2C` [Tasquinimod] (top concentration 10000 nM): -0.42.
The same measure, in the same setting: the same measure for `Nc1nc2[nH]cnc2c(=S)[nH]1` [Thioguanine] (top concentration 10000 nM): 6.04.
